Drawing on patent US8716275B2, “Compound for the treatment of hepatitis C” (Bristol-Meyers Squibb Company, priority 2011, dated 2014), this text covers IC50, inhibition and EC50 for one compound.

Series [1] concerns the target T1, hERG potassium channel (Homo sapiens, UniProt Q12809).
T1 construct: expressed in transfected cells; host or cells: HEK293
In words: hERG Flux assay (FLIPR). It counts as cell-based. The following applies: HEK293 cells stably-expressing hERG, thallium flux. How it is done:
Cells are incubated at 21° C. for 45 minutes.
Data Analysis. […] The raw fluorescence units data files generated on the FLIPR plate reader are automatically exported and processed by in-house data analysis tools.

The target in series [2] is NS5B protein of HCV, genotype 1b (Hepatitis C virus genotype 1b, UniProt Q9WMX2). In words: biochemical. On the procedure: The cDNA encoding the NS5B protein of HCV, genotype 1b, was cloned into the pET21a expression vector. The protein was expressed with an 18 amino acid C-terminal truncation to enhance the solubility. The E. coli competent cell line BL21(DE3) was used for expression of the protein. Cultures were grown at 37° C. for ˜4 hours until the cultures reached an optical density of 2.0 at 600 nm. The cultures were cooled to 20° C. and induced with 1 mM IPTG. Fresh ampicillin was added to a final concentration of 50 μg/mL and the cells were grown overnight at 20° C.
The lysis buffer consisted of 20 mM Tris-HCl, pH 7.4, 500 mM NaCl, 0.5% triton X-100, 1 mM DTT, 1 mM EDTA, 20% glycerol, 0.5 mg/mL lysozyme, 10 mM MgCl2, 15 ug/mL deoxyribonuclease I, and Complete TM protease inhibitor tablets (Roche). After addition of the lysis buffer, frozen cell pellets were resuspended using a tissue homogenizer. […]
After incubating for at least 15 minutes, plates were read on an Amersham LEADseeker multimodality imaging system.
IC50 values for compounds were determined using ten different [I]. IC50 values were calculated from the inhibition using the four-parameter logistic formula y=A+((B−A)/(1+((C/x)^D))), where A and B denote minimal and maximal % inhibition, respectively, C is the IC50, D is hill slope and x represents compound concentration.

Series [3] addresses T1, hERG potassium channel. In words: hERG patch clamp assay. Type of series: cell-based. The following applies: HEK293 cells stably transfected with hERG cDNA, peak tail currents, read-out: % Inhibition (Mean ± SE). The text has this: Cell Line. Human embryonic kidney (HEK293) cells stably transfected with human ether-a-go-go related gene (hERG) cDNA were used in the hERG assay. The biophysical and pharmacological properties of recombinant hERG channels expressed in HEK293 cells and of native IKr channels in human cardiac cells are nearly identical. Several known hERG blockers, including dofetilide, terfenadine, cisapride and E-4031 inhibit recombinant hERG currents in the hERG stable cell line and IKr currents in isolated cardiac myocytes with identical potency.
Patch Clamp. […]
Initially, a current-voltage relationship was generated in the control bath solution using the following voltage protocol. hERG currents were elicited by 2 second step depolarizations applied from a holding potential of −80 mV to test potentials ranging from −70 mV to +60 mV. […] The peak tail current was monitored until a new steady-state in the presence of test article was achieved. This was followed by the application of the next higher concentration of test article to be tested, and was repeated until all concentrations of test article had been evaluated. Effects of test article on hERG channel were calculated by measuring inhibition of peak tail currents. Percent inhibition of tail currents was plotted as a function of test article concentration to quantify hERG channel inhibition. […] All currents were recorded at room temperature 25° C.

Series [4] concerns genotype 1b HCV replicon in Huh-7 cells. The series is described as follows: HCV Replicon Luciferase Assay. The following applies: Hepatitis C virus, Huh-7, 72 h. It counts as cell-based. On the procedure:
Cell Lines. The cell lines used to evaluate compounds consist of a human hepatocyte derived cell line (Huh-7) that constitutively expresses a genotype 1b HCV replicon containing a Renilla luciferase reporter gene. These cells were maintained in Dulbecco's modified Eagle medium (DMEM) containing 10% FBS, 100 U/mL penicillin/streptomycin and 1.0 mg/mL G418.
HCV Replicon Luciferase Assay. To evaluate compound efficacy, titrated compounds were transferred to sterile 384-well tissue culture treated plates, and the plates were seeded with HCV replicon cells (50 μL at a density of 2.4×10^3 cells/well) in DMEM containing 4% FBS (final DMSO concentration at 0.5%). After 3 days incubation at 37° C., cells were analyzed for Renilla Luciferase activity using the EnduRen substrate (Promega cat #E6485) according to the manufacturer's directions. Briefly, the EnduRen substrate was diluted in DMEM and then added to the plates to a final concentration of 7.5 μM. The plates were incubated for at least 1 h at 37° C. then read on a Viewlux Imager (PerkinElmer) using a luminescence program. The 50% effective concentration (EC50) was calculated using the four-parameter logistic formula noted above.

T1 sequence (Q12809 whole entry): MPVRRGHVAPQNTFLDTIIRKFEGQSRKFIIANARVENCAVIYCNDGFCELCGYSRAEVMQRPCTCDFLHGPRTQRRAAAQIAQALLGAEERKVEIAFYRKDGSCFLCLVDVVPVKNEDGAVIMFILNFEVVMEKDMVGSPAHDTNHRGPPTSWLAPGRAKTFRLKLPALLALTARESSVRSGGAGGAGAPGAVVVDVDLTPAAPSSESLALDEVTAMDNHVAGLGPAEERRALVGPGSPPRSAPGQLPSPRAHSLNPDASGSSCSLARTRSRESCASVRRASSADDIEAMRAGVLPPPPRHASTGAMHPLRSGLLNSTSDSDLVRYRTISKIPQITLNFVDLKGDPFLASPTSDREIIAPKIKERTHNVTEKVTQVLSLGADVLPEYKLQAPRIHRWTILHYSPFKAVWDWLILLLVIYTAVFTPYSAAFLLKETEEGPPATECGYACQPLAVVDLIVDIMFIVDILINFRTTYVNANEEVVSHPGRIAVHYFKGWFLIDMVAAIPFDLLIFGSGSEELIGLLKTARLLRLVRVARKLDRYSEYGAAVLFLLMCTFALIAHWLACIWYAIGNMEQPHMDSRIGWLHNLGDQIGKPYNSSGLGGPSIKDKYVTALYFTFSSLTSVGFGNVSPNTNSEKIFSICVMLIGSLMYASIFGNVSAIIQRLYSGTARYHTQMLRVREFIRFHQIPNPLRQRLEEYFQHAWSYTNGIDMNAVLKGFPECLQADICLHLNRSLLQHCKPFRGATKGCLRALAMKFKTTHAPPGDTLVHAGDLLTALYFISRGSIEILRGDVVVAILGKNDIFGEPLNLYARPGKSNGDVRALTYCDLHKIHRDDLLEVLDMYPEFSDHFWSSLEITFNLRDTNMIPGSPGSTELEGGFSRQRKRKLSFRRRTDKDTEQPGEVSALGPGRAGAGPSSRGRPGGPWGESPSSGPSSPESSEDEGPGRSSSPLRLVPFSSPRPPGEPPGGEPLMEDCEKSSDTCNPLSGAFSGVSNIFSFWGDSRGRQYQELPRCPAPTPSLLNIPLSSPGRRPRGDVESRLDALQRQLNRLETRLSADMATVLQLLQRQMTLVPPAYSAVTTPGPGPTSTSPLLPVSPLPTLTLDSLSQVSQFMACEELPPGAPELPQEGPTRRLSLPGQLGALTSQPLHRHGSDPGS
Chain of NS5B protein of HCV, genotype 1b (Q9WMX2 2420-2992): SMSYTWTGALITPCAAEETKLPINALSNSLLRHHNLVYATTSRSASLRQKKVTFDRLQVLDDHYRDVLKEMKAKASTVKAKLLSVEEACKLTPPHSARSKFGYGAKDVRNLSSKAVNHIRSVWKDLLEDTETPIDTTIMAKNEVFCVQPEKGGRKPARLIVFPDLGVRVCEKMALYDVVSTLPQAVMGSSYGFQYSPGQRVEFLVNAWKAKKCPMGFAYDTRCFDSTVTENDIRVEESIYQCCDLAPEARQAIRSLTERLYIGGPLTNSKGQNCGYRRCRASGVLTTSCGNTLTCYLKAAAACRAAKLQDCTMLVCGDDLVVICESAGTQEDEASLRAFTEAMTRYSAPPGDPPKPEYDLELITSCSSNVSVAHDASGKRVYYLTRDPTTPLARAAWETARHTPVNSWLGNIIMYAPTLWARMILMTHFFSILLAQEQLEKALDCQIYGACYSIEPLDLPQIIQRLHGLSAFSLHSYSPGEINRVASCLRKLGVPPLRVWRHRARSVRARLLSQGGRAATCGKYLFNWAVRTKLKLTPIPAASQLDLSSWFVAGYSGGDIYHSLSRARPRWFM

`CN1CC2CCC(C1)N2C(=O)[C@]12C[C@H]1c1cc(F)ccc1-c1c(C3CCCCC3)c3ccc(C(=O)NS(=O)(=O)C4(C)CC4)cc3n1C2` [Compound I, (1aR,12bS)-8-cyclohexyl-11-fluoro-N-((1-methylcyclopropyl)sulfonyl)-1a-((3-methyl-3,8-diazabicyclo[3.2.1]oct-8-yl)carbonyl)-1,1a,2,12b-tetrahydrocyclopropa[d]indolo[2,1-a][2]benzazepine-5-carboxamide]: the values for the IC50 (against hERG potassium channel [1]; in series [2]) were 23400 nM and 5 nM, respectively. Further, the inhibition at 10 μM at hERG potassium channel [3] (pH 7.4, Conc. 10 μM) worked out at 30.5 ± 1.9%. In addition, the inhibition at 30 μM at hERG potassium channel [3] (pH 7.4, Conc. 30 μM) was 43.4 ± 2%. The same compound came in with an EC50 in series [4] of 7 nM.
